Columns and labels:
Assay in all cases: radiometric filter-binding kinase assay, Kinaseprofiler
ABL1 (human) = ABL1 (human) (UniProt P00519); details: ATP 10 µM
BMX (human) = BMX (human) (UniProt P51813); details: ATP 45 µM
BRSK1 (human) = BRSK1 (human) (UniProt Q8TDC3); details: ATP 200 µM
CDK2 CCNE1 (human) = CDK2 CCNE1 (human) (UniProt P24941+P24864); details: ATP 120 µM
CDK3 CCNE1 (human) = CDK3 CCNE1 (human) (UniProt Q00526+P24864); details: ATP 200 µM
CDK9 CCNT1 (human) = CDK9 CCNT1 (human) (UniProt P50750+O60563); details: ATP 45 µM
CSNK1G2 (human) = CSNK1G2 (human) (UniProt P78368); details: ATP 10 µM
EPHA1 (human) = EPHA1 (human) (UniProt P21709); details: ATP 45 µM
ERBB4 (human) = ERBB4 (human) (UniProt Q15303); details: ATP 15 µM
FER (human) = FER (human) (UniProt P16591); details: ATP 70 µM
FES (human) = FES (human) (UniProt P07332); details: ATP 45 µM
FGFR1 (human) = FGFR1 (human) (UniProt P11362); details: ATP 200 µM
FYN (human) = FYN (human) (UniProt P06241); details: ATP 70 µM
GSG2 (human) = GSG2 (human) (UniProt Q8TF76); details: ATP 70 µM
IRAK1 (human) = IRAK1 (human) (UniProt P51617); details: ATP 45 µM
IRAK1 (human), sequence (P51617 whole entry, looked up): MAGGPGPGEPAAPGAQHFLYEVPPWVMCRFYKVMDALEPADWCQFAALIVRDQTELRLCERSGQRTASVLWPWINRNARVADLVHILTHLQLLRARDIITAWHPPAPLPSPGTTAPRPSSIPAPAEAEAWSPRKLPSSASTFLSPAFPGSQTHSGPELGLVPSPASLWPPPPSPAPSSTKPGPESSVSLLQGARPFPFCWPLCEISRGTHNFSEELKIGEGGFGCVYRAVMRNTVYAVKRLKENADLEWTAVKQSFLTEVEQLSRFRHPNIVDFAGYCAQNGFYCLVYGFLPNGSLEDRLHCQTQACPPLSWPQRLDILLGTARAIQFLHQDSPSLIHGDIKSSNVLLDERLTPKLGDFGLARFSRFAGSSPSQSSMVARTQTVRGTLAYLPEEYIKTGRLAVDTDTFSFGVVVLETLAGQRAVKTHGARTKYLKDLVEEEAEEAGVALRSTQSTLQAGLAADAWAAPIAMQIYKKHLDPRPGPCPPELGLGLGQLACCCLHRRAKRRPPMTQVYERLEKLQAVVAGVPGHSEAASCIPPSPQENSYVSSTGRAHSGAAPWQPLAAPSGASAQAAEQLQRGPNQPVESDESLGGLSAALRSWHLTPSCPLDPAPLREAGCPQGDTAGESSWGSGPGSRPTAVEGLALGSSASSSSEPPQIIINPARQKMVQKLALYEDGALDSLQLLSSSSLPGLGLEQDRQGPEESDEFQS

KDR (human) = KDR (human) (UniProt P35968); details: ATP 90 µM
MAPK1 (human) = MAPK1 (human) (UniProt P28482); details: ATP 155 µM
MARK2 (human) = MARK2 (human) (UniProt Q7KZI7); details: ATP 15 µM
MKNK2 (human) = MKNK2 (human) (UniProt Q9HBH9); details: ATP 120 µM
MKNK2 (human), sequence (Q9HBH9 whole entry, looked up): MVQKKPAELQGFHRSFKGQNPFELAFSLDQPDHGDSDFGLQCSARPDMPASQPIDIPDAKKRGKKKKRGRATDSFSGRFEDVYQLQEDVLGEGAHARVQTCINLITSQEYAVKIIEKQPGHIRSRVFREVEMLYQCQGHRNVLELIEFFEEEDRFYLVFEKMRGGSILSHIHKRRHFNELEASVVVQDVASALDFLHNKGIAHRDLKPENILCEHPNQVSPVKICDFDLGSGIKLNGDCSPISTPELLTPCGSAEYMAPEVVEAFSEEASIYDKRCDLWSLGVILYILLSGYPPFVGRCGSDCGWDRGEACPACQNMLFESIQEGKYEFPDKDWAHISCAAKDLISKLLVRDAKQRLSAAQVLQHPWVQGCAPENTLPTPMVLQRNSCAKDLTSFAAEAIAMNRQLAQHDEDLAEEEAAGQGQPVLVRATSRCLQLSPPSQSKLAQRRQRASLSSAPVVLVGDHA

NEK2 (human) = NEK2 (human) (UniProt P51955); details: ATP 120 µM
NEK7 (human) = NEK7 (human) (UniProt Q8TDX7); details: ATP 45 µM
PAK6 (human) = PAK6 (human) (UniProt Q9NQU5); details: ATP 10 µM
PIM2 (human) = PIM2 (human) (UniProt Q9P1W9); details: ATP 15 µM
PIM2 (human), sequence (Q9P1W9 whole entry, looked up): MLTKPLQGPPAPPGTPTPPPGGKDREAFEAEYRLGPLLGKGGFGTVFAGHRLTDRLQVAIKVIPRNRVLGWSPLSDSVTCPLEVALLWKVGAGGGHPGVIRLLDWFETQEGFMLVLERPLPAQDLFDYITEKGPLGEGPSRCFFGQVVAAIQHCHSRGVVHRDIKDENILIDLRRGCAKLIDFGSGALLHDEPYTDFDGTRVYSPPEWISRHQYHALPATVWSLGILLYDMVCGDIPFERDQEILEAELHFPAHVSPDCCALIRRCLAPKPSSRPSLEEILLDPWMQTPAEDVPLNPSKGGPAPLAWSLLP

PRKCE (human) = PRKCE (human) (UniProt Q02156); details: ATP 45 µM
PRKD2 (human) = PRKD2 (human) (UniProt Q9BZL6); details: ATP 155 µM
PRKX (human) = PRKX (human) (UniProt P51817); details: ATP 200 µM
RIPK2 (human) = RIPK2 (human) (UniProt O43353); details: ATP 120 µM
RIPK2 (human), sequence (O43353 whole entry, looked up): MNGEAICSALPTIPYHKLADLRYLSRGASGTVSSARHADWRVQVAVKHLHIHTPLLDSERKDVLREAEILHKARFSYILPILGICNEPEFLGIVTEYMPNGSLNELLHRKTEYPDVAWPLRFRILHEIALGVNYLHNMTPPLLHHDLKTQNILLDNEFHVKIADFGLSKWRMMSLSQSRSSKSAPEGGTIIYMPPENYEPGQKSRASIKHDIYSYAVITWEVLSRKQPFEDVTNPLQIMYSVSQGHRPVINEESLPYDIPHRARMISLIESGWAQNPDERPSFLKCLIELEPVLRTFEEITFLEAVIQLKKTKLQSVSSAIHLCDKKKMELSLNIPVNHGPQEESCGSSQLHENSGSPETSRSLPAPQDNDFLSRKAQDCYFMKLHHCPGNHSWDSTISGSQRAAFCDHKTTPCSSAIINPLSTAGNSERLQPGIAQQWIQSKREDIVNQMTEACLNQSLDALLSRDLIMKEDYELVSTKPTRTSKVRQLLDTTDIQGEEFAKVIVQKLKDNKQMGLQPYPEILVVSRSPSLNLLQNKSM

SIK1 (human) = SIK1 (human) (UniProt P57059); details: ATP 45 µM
SRPK3 (human) = SRPK3 (human) (UniProt Q9UPE1); details: ATP 15 µM
SRPK3 (human), sequence (Q9UPE1 whole entry, looked up): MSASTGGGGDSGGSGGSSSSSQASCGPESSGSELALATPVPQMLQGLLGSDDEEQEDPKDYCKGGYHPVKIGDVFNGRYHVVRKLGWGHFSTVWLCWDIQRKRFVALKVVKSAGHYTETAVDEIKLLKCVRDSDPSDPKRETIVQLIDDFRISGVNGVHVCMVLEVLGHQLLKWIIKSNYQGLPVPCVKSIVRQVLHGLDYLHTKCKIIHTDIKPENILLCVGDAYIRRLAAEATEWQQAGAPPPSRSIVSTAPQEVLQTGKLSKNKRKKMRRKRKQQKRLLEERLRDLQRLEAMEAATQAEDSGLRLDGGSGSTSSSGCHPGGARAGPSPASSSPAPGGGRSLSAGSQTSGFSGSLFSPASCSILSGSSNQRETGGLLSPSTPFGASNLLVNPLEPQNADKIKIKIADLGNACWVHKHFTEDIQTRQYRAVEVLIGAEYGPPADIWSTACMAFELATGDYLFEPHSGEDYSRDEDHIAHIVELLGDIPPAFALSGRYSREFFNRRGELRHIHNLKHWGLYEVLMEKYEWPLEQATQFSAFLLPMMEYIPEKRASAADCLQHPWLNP

STK4 (human) = STK4 (human) (UniProt Q13043); details: ATP 90 µM
STK4 (human), sequence (Q13043 whole entry, looked up): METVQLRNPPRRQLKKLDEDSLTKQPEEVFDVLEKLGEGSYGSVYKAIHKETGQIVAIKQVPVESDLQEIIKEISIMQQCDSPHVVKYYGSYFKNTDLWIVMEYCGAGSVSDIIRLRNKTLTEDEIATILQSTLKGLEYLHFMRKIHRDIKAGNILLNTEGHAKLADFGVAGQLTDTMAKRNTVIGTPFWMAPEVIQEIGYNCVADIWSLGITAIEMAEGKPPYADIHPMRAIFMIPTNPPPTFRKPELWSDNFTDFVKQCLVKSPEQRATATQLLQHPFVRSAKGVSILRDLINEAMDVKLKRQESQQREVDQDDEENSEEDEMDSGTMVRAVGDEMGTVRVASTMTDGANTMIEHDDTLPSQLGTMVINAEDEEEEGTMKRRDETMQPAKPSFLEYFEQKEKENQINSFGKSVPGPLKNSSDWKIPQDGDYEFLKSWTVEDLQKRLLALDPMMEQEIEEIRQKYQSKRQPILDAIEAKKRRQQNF

TXK (human) = TXK (human) (UniProt P42681); details: ATP 200 µM
ULK3 (human) = ULK3 (human) (UniProt Q6PHR2); details: ATP 10 µM
WNK3 (human) = WNK3 (human) (UniProt Q9BYP7); details: ATP 200 µM

BMX (human), sequence (P51813 whole entry, looked up): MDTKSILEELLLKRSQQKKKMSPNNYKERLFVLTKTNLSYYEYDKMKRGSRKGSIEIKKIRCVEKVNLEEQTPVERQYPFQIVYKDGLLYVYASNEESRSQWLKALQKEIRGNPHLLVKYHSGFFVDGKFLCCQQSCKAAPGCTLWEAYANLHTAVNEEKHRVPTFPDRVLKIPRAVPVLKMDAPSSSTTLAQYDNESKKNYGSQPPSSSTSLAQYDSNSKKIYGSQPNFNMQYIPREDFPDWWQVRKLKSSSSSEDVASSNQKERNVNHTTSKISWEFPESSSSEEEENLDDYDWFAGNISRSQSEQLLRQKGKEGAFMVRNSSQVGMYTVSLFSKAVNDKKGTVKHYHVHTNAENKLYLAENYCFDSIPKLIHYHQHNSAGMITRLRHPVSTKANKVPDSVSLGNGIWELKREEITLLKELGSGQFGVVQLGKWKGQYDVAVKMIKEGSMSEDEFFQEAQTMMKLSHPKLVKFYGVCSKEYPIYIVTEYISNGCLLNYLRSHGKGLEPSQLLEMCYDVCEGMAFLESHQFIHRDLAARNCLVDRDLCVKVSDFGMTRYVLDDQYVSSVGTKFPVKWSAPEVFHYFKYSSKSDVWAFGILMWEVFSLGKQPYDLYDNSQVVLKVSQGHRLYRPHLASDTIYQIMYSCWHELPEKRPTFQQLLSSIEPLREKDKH
ABL1 (human), sequence (P00519 whole entry, looked up): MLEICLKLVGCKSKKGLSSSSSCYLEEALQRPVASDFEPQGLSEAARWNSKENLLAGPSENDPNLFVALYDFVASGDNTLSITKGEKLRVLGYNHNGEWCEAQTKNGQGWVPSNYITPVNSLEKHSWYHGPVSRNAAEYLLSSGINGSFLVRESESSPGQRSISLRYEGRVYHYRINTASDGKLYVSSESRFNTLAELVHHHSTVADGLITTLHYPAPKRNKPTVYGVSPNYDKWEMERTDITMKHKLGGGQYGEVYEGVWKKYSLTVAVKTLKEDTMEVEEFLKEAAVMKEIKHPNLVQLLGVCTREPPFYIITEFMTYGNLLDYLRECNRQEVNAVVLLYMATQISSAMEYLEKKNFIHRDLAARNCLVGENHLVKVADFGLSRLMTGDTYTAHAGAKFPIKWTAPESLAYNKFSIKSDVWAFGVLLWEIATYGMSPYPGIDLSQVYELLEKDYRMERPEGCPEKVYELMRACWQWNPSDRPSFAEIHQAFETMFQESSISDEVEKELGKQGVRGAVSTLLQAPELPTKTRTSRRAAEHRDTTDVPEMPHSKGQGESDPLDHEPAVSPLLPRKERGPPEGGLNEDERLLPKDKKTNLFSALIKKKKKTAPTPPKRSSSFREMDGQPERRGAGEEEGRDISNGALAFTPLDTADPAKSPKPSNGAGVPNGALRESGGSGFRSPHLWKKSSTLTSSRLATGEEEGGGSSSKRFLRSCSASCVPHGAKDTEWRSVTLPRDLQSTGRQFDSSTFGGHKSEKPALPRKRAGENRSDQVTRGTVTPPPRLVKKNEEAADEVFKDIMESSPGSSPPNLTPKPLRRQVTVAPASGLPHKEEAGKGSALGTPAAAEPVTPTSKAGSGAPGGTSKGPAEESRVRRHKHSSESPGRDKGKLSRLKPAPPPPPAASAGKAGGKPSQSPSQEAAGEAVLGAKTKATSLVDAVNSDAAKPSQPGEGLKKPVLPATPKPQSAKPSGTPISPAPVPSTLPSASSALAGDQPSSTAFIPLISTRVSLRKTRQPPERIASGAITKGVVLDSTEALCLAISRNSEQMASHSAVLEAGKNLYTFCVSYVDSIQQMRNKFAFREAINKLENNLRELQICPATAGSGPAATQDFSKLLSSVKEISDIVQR

- residual activity (ABL1 (human); compound 1.0 µM): 83%
- residual activity (ABL1 (human); compound 10.0 µM): 56%
- residual activity (BMX (human); compound 1.0 µM): 59%
- residual activity (BMX (human); compound 10.0 µM): 18%
- residual activity (BRSK1 (human); compound 1.0 µM): 38%
- residual activity (BRSK1 (human); compound 10.0 µM): 29%
- residual activity (CDK2 CCNE1 (human); compound 1.0 µM): 8%
- residual activity (CDK2 CCNE1 (human); compound 10.0 µM): 3%
- residual activity (CDK3 CCNE1 (human); compound 1.0 µM): 26%
- residual activity (CDK3 CCNE1 (human); compound 10.0 µM): 14%
- residual activity (CDK9 CCNT1 (human); compound 1.0 µM): 96%
- residual activity (CDK9 CCNT1 (human); compound 10.0 µM): 55%
- residual activity (CSNK1G2 (human); compound 1.0 µM): 70%
- residual activity (CSNK1G2 (human); compound 10.0 µM): 6%
- residual activity (EPHA1 (human); compound 1.0 µM): 67%
- residual activity (EPHA1 (human); compound 10.0 µM): 42%
- residual activity (ERBB4 (human); compound 1.0 µM): 104%
- residual activity (ERBB4 (human); compound 10.0 µM): 97%
- residual activity (FER (human); compound 1.0 µM): 75%
- residual activity (FER (human); compound 10.0 µM): 51%
- residual activity (FES (human); compound 1.0 µM): 34%
- residual activity (FES (human); compound 10.0 µM): 6%
- residual activity (FGFR1 (human); compound 1.0 µM): 39%
- residual activity (FGFR1 (human); compound 10.0 µM): 4%
- residual activity (FYN (human); compound 1.0 µM): 60%
- residual activity (FYN (human); compound 10.0 µM): 47%
- residual activity (GSG2 (human); compound 1.0 µM): 10%
- residual activity (GSG2 (human); compound 10.0 µM): -1%
- residual activity (IRAK1 (human); compound 1.0 µM): 69%
- residual activity (IRAK1 (human); compound 10.0 µM): 42%
- residual activity (KDR (human); compound 1.0 µM): 17%
- residual activity (KDR (human); compound 10.0 µM): 3%
- residual activity (MAPK1 (human); compound 1.0 µM): 88%
- residual activity (MAPK1 (human); compound 10.0 µM): 55%
- residual activity (MARK2 (human); compound 1.0 µM): 55%
- residual activity (MARK2 (human); compound 10.0 µM): 12%
- residual activity (MKNK2 (human); compound 1.0 µM): 43%
- residual activity (MKNK2 (human); compound 10.0 µM): 10%
- residual activity (NEK2 (human); compound 1.0 µM): 86%
- residual activity (NEK2 (human); compound 10.0 µM): 81%
- residual activity (NEK7 (human); compound 1.0 µM): 99%
- residual activity (NEK7 (human); compound 10.0 µM): 89%
- residual activity (PAK6 (human); compound 1.0 µM): 91%
- residual activity (PAK6 (human); compound 10.0 µM): 49%
- residual activity (PIM2 (human); compound 1.0 µM): 58%
- residual activity (PIM2 (human); compound 10.0 µM): 21%
- residual activity (PRKCE (human); compound 1.0 µM): 101%
- residual activity (PRKCE (human); compound 10.0 µM): 84%
- residual activity (PRKD2 (human); compound 1.0 µM): 92%
- residual activity (PRKD2 (human); compound 10.0 µM): 36%
- residual activity (PRKX (human); compound 1.0 µM): 86%
- residual activity (PRKX (human); compound 10.0 µM): 70%
- residual activity (RIPK2 (human); compound 1.0 µM): 70%
- residual activity (RIPK2 (human); compound 10.0 µM): 52%
- residual activity (SIK1 (human); compound 1.0 µM): 96%
- residual activity (SIK1 (human); compound 10.0 µM): 48%
- residual activity (SRPK3 (human); compound 1.0 µM): 90%
- residual activity (SRPK3 (human); compound 10.0 µM): 82%
- residual activity (STK4 (human); compound 1.0 µM): 52%
- residual activity (STK4 (human); compound 10.0 µM): 21%
- residual activity (TXK (human); compound 1.0 µM): 58%
- residual activity (TXK (human); compound 10.0 µM): 23%
- residual activity (ULK3 (human); compound 1.0 µM): 73%
- residual activity (ULK3 (human); compound 10.0 µM): 43%
- residual activity (WNK3 (human); compound 1.0 µM): 87%
- residual activity (WNK3 (human); compound 10.0 µM): 77%
Compound: O=C1c2ccccc2-c2n[nH]c3cccc1c23

From the kinase profiling compilation of Christmann-Franck et al. (2016)
